According to patent publication US8114393B2, “Methods and compositions for phosphate binding” (Wisconsin Alumni Research Foundation, priority 2005, dated 2012):

How the values were obtained:
[1] = test system: Intestinal Phosphate Absorption; assay: Intestinal phosphate absorption: oral 33P dose after gavage of phosphate binder; type: in vivo, rats; conditions: for amount of 33P remaining in the digestive tract compared with water (FIG. 3A) / serum 33P levels compared with water (FIG. 3B): 10 mg calcium, 14.4 mg Renagel or novel binder (Table 1); for binding / absorption of an oral 33P dose (summary): administered orally in rats; for 33P remaining in the intestine compared to Renagel, dose response study (FIG. 4A) / serum 33P levels compared to Renagel, dose response study (FIG. 4B): two highest levels of DAB-8 and DAB-16, highest level of DAB-64, vs 14.4 mg Renagel
Description: (§1) Animals. Male Sprague-Dawley rats (Harlan Sprague-Dawley, Madison, Wis.) weighing approximately 120 grams were used in all experiments.
In experiments to measure ^33P absorption, the rats were fed a laboratory chow diet (Lab Diet 5012, Richmond, Ind.) containing 1% calcium and 0.7% phosphorus ad libitum for less than one week prior to the experiment.
Intestinal Phosphate Absorption. Following an overnight fast, rats were administered 0.5 mL water or an oral phosphate binder dissolved in water via gastric gavage. A second dose of 0.5 mL containing 3 μCi ^33P (as H3PO4, specific activity 155.8 Ci/mg, New England Nuclear/Perkin Elmer, Boston, Mass.) in a 10, 50, or 100 mM KH2PO4 buffer at pH 7.4 was immediately administered via gastric gavage. Rats were killed by CO2 asphyxiation immediately or 60 minutes after the oral dose. The rats killed immediately (labeled “0 min control” in figures) were used to determine if the oral ^33P dose was properly administered and completely recovered.
Blood was collected via heart puncture and centrifuged at 1500×g for 15 minutes at 22° C. to yield serum. A suture was tied to the cranial end of the esophagus to contain liquid inside the stomach. The entire digestive tract was then removed and allowed to dissolve for several days in concentrated HNO3 (approximately 1 mL HNO3 per gram tissue). The exact volume of the dissolved digestive tract was determined by diluting the dissolved tissues to equal volumes with water.
The amount of radioactivity in total body serum and total volume of dissolved tissue was determined following liquid scintillation counting of 50 μL aliquots in triplicate (Tri-Carb Liquid Scintillation Analyzer, Perkin-Elmer/Packard, Boston, Mass.). Total body serum was estimated to be 40 mL serum/kg body weight. (Hawk T et al., 1999, Formulary for laboratory animals, Ames, Iowa: Iowa State University Press.)
(§2) Statistical analysis. Data are presented as means±standard error of the means (SEM). Treatment groups were compared by a fully factorial analysis of variance (ANOVA) and means were subjected to Tukey, Scheffe, and Fisher's Least-Significant-Difference (LSD) tests (Systat 5.2.1, Systat Software, Inc., Point Richmond, Calif.). Differences were considered significant if at least two of the tests detected significance with a p-value <0.05, unless specified otherwise.
Materials and Methods. The relevant materials and methods were the same as set forth above except that instead of using “0.5 mL of water or 39.5 mg calcium acetate, 14.4 mg RENAGEL, or up to 132.8 mg of test dendrimer,” the following was used “0.5 mL of water, 14.4 mg RENAGEL or 10 mg DAB-8 as the hydroacetate or hydrocitrate form dissolved in water.”

[2] = test system: Intestinal Phosphate Absorption; assay: Fecal calcium and phosphorus measurements, binder in purified diet; type: in vivo, rats; conditions: for mg P per gram feces: 48 h fecal collection, mean ± SEM, control 3.79 ± 0.18; for fecal phosphorus levels versus control diet or diet with 0.15% Renagel / increase in fecal phosphorus versus the increase from excess calcium or an equivalent amount of Renagel: 0.15% of diet; for fecal phosphorus levels versus control diet or diet with 0.15% Renagel: DAB-8 and DAB-16 significant by Fisher's LSD test only; for increase in fecal phosphorus versus the increase from excess calcium or an equivalent amount of Renagel: Fisher's LSD test only
Description: as §1
In experiments to measure fecal calcium and phosphorus levels, rats were fed purified diet described previously for 9 days. (Suda T et al., Biological activity of 25-hydroxyergocalciferol in rats, J Nutr 1970, 100:1049-1052). This diet was mixed with egg white protein (Harlan Teklad, Madison, Wis.) and contained 0.20% inorganic phosphorus and 0.47% calcium. The purified diet was supplemented with 100 μL soybean oil (Wesson oil, ConAgra Foods, Irvine, Calif.) containing 500 μg α-tocopherol, 60 μg menadione, 40 μg β-carotene, and 1.875 μg cholecalciferol three times each week.
Fecal calcium and phosphorus measurements. Rats were fed the purified diet described above or the same diet with 1.2% calcium, 0.15% Renagel®, or 0.15% DAB-4, DAB-8, or DAB-16 for 7 days. Rats were then moved to metabolic cages and fecal matter was collected for 48 hours. Fecal samples were frozen, lyophilized, and heated to over 600° C. overnight in a muffle oven. Remaining ash was then dissolved overnight in 25 mL 6 N HCl. The calcium concentration of the acid was determined by flame atomic absorption spectroscopy (Model 3110, Perkin Elmer, Norwalk, Conn.) using an aliquot of the dissolved ash diluted 1:40 with 1 g/L LaCl3. The phosphorus concentration of an aliquot of the dissolved ash was determined by a colorimetric assay described previously. (Itaya K et al., A new micromethod for the colorimetric determination of inorganic phosphate, Clin Chim Acta 1966, 14:361-366).
as §2

rats = assay: Oral tolerability of DAB dendrimers fed in the diet; type: in vivo; conditions: as hydrochlorides; for tolerability in rats: 0.15% of the diet; for tolerability in rats, observation: 0.3% or 0.6% of the diet, after 5 days (data not shown)
Description: Unfortunately, little is known regarding the toxicity of DAB dendrimers when administered orally. Previous research has shown DAB dendrimers to be cytotoxic in vitro (Duncan R et al., Dendrimer biocompatibility and toxicity, Adv Drug Deliv Rev 2005, 57:2215-2237) and when administered intravenously, the DAB dendrimers are lethal. (Schatzlein A G et al., Preferential liver gene expression with polypropylenimine dendrimers, J Control Release 2005, 101:247-258). In our experiments, however, the DAB dendrimers were well tolerated by rats when administered orally.

[3] = 14.4 mg Renagel or 10 mg DAB-8 as acetate or citrate, 10 mM KH2PO4, 60 min
[4] = 10 mM KH2PO4, 60 min, listed as DAB-16-Cl

Row | Molecule | amount of 33P remaining in the digestive tract compared with water (FIG. 3A) ([1]; 10 mM KH2PO4, 60 min) | serum 33P levels compared with water (FIG. 3B) ([1]; 10 mM KH2PO4, 60 min) | mg P per gram feces ([2]; 0.15% of diet for 7 days) [mg P per gram feces] | fecal phosphorus levels versus control diet or diet with 0.15% Renagel [2] | tolerability in rats (rats) | tolerability in rats, observation (rats) | 33P remaining in the intestine compared to Renagel, dose response study (FIG. 4A) [1] | serum 33P levels compared to Renagel, dose response study (FIG. 4B) [1] | other results
1 | Cl.Cl.Cl.Cl.Cl.Cl.NCCCN(CCCN)CCCCN(CCCN)CCCN [DAB-4, polypropylenimine tetraamine Dendrimer perhydrochloride] | significantly increased | significantly reduced | 4.30 ± 0.13 | increased, though not significantly | tolerated | only softened stool was observed | – | – | –
2 | Cl.Cl.N[C@@H]1CO[C@@H]2[C@H]1OC[C@H]2N [FC, 1,4:3,6-Dianhydro-2,5-diamino-2,5-dideoxy-D-iditol dihydrochloride] | did not affect | slight, but significant, decrease | – | – | – | – | – | – | binding / absorption of an oral 33P dose (summary) [1]: does not appear to bind
3 | Cl.Cl.Cl.Cl.NC[C@@H](N)[C@@H](N)CN [KB-54, erythro-1,2,3,4-tetraminobutane tetrahydrochloride] | significantly increased | significantly reduced | – | – | – | – | – | – | binding / absorption of an oral 33P dose (summary) [1]: reduced the absorption
4 | CC(=O)[O-].CC(=O)[O-].[Ca+2] [calcium, Calcium acetate, reference compound] | significantly increased | significantly reduced | – | – | – | – | – | – | 33P remaining in the intestine after 60 minutes compared with water (FIG. 2A) ([1]; 20 mg calcium (as calcium acetate) or 14.4 mg Renagel by gavage, 33P in 10, 50 or 100 mM KH2PO4, fasted rats): significantly more; 33P bound in the intestine compared with 14.4 mg Renagel (FIG. 2A) ([1]; 20 mg calcium, difference significant in 10 or 100 mM phosphate, 60 min): bound more ^33P in the intestine; serum 33P levels compared with water (FIG. 2B) ([1]; calcium (printed 10 mg) or 14.4 mg Renagel, 10, 50 or 100 mM KH2PO4, 60 min): significant decrease; mg P per gram feces ([2]; 1.20% Ca diet for 7 days): 4.39 ± 0.23 mg P per gram feces; fecal phosphorus versus control diet ([2]; 1.20% calcium diet): increased, though not significantly
5 | DAB-Am-8, Polypropylenimine octaamine Dendrimer citrate (Generation 2.0) [DAB-8 as citrate] | – | – | – | – | – | – | – | – | 33P in the serum compared with vehicle pretreatment (FIG. 26) [1, 3]: significantly less; 33P retained in the gut compared with vehicle pretreatment (FIG. 25) [1, 3]: significantly more
6 | Polypropylenimine hexadecaamine Dendrimer perhydrochloride [DAB-16] | significantly increased | significantly reduced | 4.78 ± 0.30 | significantly increased | tolerated | only softened stool was observed | significantly increased | significantly reduced | 33P retained in the digestive tract versus DAB-4 at an equivalent amount of free amino groups (FIG. 5A) ([1]; 10 mM KH2PO4, 60 min): bound significantly more; 33P retained in the digestive tract versus DAB-8 at equimolar amounts (FIG. 5A) ([1]; 10 mM KH2PO4, 60 min): retained significantly more; amount of 33P remaining in the digestive tract compared to a comparable amount of Renagel (FIG. 3A) ([1]; 10 mM KH2PO4, 60 min): bound significantly more; serum 33P levels compared to a comparable amount of Renagel (FIG. 3B) ([1]; 10 mM KH2PO4, 60 min): significantly reduced; 33P retained in the digestive tract versus DAB-8 at equimolar amounts (FIG. 5A) [1, 4]: significantly more; amount of 33P remaining in the digestive tract compared to a comparable amount of Renagel (FIG. 3A) [1, 4]: significantly increased; serum 33P levels compared with water, mechanism study (FIG. 5B) ([1]; 13.9 mg, the only level of binder with significant effect): significantly reduce; increase in fecal phosphorus versus the increase from excess calcium or an equivalent amount of Renagel [2]: significantly higher
7 | Polypropylenimine tetrahexacontaamine Dendrimer perhydrochloride [DAB-64] | significantly increased | significantly reduced | – | – | – | – | significantly increased | significantly reduced | –
8 | polypropylenimine octaamine Dendrimer perhydrochloride [DAB-8] | significantly increased | significantly reduced | 4.71 ± 0.53 | significantly increased | tolerated | only softened stool was observed | significantly increased | significantly reduced | amount of 33P remaining in the digestive tract compared to a comparable amount of Renagel (FIG. 3A) ([1]; 10 mM KH2PO4, 60 min): bound significantly more; serum 33P levels compared to a comparable amount of Renagel (FIG. 3B) ([1]; 10 mM KH2PO4, 60 min): significantly reduced; amount of 33P remaining in the digestive tract compared to a comparable amount of Renagel (FIG. 3A) ([1]; 10 mM KH2PO4, 60 min, listed as DAB-8-Cl): significantly increased; increase in fecal phosphorus versus the increase from excess calcium or an equivalent amount of Renagel [2]: significantly higher
